In US9723817B2 (priority 2011, dated 2017):

Assays:
wild type N2 C. elegans = test: EPG recording of pharyngeal pumping in microfluidic EPG array, wild type worms; format: in vivo, Caenorhabditis elegans
Protocol: (§1) C. elegans strains were grown on Nematode Growth Medium (NGM) agar plates seeded with the OP50 strain of E. coli. All strains were obtained from the Caenorhabditis Genetics Center (CGC; Minneapolis, Minn.). Wild-type worms were Bristol N2 and Ivermectin (IVM) resistant mutants were DA1316 avr-14(ad1302); avr-15(ad1051); glc-1(pk54). Worms were age synchronized by allowing gravid adults to lay eggs on seeded NGM plates for approximately 6 hr. The adults were then removed and embryos allowed to develop to adulthood at room temperature.
All experiments utilized M9 buffer (recipe available on the World Wide Web at 130.15.90.245/wormlab_recipe_book.htm#Commonlab; containing KH2PO4, NaHPO4, NaCl and MgSO4) to which serotonin (5HT) was added to stimulate pharyngeal pumping (Raizen and Avery, Neuron 1994 March; 12(3):483-95). Stocks of serotonin creatine sulfate monohydrate (Sigma H7752; St. Louis, Mo.) were prepared in M9 buffer at 40 mM and held in small aliquots at −20° C. until use. Each day of an experiment, a fresh aliquot was thawed and diluted to 10 mM 5HT in M9 buffer. This “M9-5HT” buffer was the control medium to which drugs or other compounds were added. Stock solutions of ivermectin (10 mM; Sigma 8898) were made up in dimethyl sulfoxide (DMSO, Fisher D-136; Fair Lawn, N.J.) and held at −20° C. for no longer than 2 wk. On the day of an experiment, IVM was diluted to the final concentration in M9-5HT buffer containing 0.005% Fast Green (Fisher F-99) as a visual indicator of drug flow within the chip (see below). The dye-containing M9-5HT buffer was filtered (PALL Life Sciences 25 mm Acrodisc syringe filter with 0.2 μm HT Tuffryn Membrane; Port Washington, N.Y.) before drug or DMSO was added.
Young adult worms were transferred from growth plates into a glass well containing M9-5HT buffer and left to acclimate for 10 minutes. […]
(§2) EPGs were recorded by a pair of 4-channel AC differential amplifiers (A-M Systems model 1700, Carlsborg, Wash.) connected to electrodes inserted into the device. […]

[1] = tested on: ivermectin resistance mutant C. elegans avr-14(ad1302); avr-15(ad1051); glc-1(pk54); test: EPG recording of pharyngeal pumping in microfluidic EPG array, ivermectin-resistant mutant worms; format: in vivo, Caenorhabditis elegans; conditions: 10 μM ivermectin in M9-5HT buffer, ivermectin-resistant mutant (FIG. 5)
Protocol: as §1
All experiments utilized M9 buffer (recipe available on the World Wide Web at 130.15.90.245/wormlab_recipe_book.htm#Commonlab; containing KH2PO4, NaHPO4, NaCl and MgSO4) to which serotonin (5HT) was added to stimulate pharyngeal pumping (Raizen and Avery, Neuron 1994 March; 12(3):483-95). Stocks of serotonin creatine sulfate monohydrate (Sigma H7752; St. Louis, Mo.) were prepared in M9 buffer at 40 mM and held in small aliquots at −20° C. until use. Each day of an experiment, a fresh aliquot was thawed and diluted to 10 mM 5HT in M9 buffer. This “M9-5HT” buffer was the control medium to which drugs or other compounds were added. […]
as §2

| Molecule | inhibition of pharyngeal pumping (EPG) (wild type N2 C. elegans; 10 mM levamisole in M9-5HT buffer, within 10 minutes (FIG. 6B)) | pharyngeal pumping after washout of drug (EPG) (wild type N2 C. elegans; after 10 mM levamisole, within 60 minutes of wash onset with control buffer (FIG. 6C)) | block of pharyngeal pumping (EPG) [1] | size and frequency of EPG signal (wild type N2 C. elegans; 10 μM ivermectin in M9-5HT buffer, 10 minutes after treatment, all eight C. elegans (FIG. 4)) |
| --- | --- | --- | --- | --- |
| c1ccc([C@H]2CN3CCSC3=N2)cc1 [levamisole] | completely inhibited | returned to normal | – | – |
| ivermectin | – | – | failed to block | significantly reduced or even eliminated |
